Where two headings read alike, the source gives them in different places.
Assays:
AV block = assay: Drug-induced AV block: intravenous Fingolimod and/or verapamil, without and with oral 14:0 lyso PG (ECG, PR intervals); assay type: in vivo, guinea pigs
Procedure: To test this hypothesis, guinea pigs were instrumented (subcutaneous ECG leads) and exposed to increasing intravenous doses of Fingolimod and/or verapamil, without and with an oral dose of 14:0 lyso PG. ECG signals were recorded continuously for 2 hours post-dose for the AV blockers Fingolimod and verapamil. PR intervals were measured following the infusion of Fingolimod. Measurements of PR were stopped when the P wave disconnected from the QRS complexes, indicating 3rd degree AV block.
Guinea pigs exposed to an intravenous infusion of Fingolimod alone transitioned to 1st degree AV block as of a dose of 15 μg/kg, which rapidly progressed to a Mobitz Type-1, 2nd-degree AV block at 20 μg/kg, and finally progressed to 3rd degree AV block as of a dose of 23 μg/kg.
The cohort of guinea pigs exposed to verapamil received an i.v. injection of 0.5 mg/kg, followed 60 minutes later by an intravenous infusion of Fingolimod. A 1st-degree AV block appeared at a dose of 7 μg/kg, changed to a Mobitz-Type-1 2nd degree AV block at 10 μg/kg, and transitioned to 3rd-degree dissociation between P waves and QRS complexes as of 45 μg/kg.
The third cohort of animals received an initial oral gavage of 1.0 mg/kg 14:0 lyso PG, followed 60 minutes later by an intravenous dose of 0.5 mg/kg verapamil. Sixty (60) minutes post-verapamil, Fingolimod was infused into the animals as described above. […] A Mobitz-Type-2 AV block appeared in 2 out of 6 animals with P-QRS dissociation observed at a dose of 51 μg/kg in those two animals, and at 300 μg/kg in the rest of the animals in the cohort.

QTc prolongation = QTc prolongation by increasing oral doses of moxifloxacin, without or with concomitant 14:0 lyso PG
[1] = tested on: Moxifloxacin-induced QTc prolongation; assay: Cardiac response testing: protection against Moxifloxacin-induced QTc prolongation (ECG telemetry); assay type: in vivo, adult male Hartley guinea pigs; conditions: for inhibition in vivo at 2 mg/kg: Cavia porcellus, po; for Maximal prolongation: QTc; for Onset of protection / Time of maximal protection / Duration of complete protection: single oral 2 mg/kg test compound with oral moxifloxacin; for Duration of complete protection: 6 h recording
Procedure: Efficacy evaluation of the compounds of the present invention involved ECG measurements of adult male Hartley guinea pigs wherein PR, QRS, QT, QTc, JT, RR were recorded. In typical experiments, subcutaneous Kaha TR50B bio potential telemeters were surgically implanted in adult male Hartley guinea pigs weighing 300 to 350 g at enrollment. One lead was sutured to the apex of the heart, while another was sutured to the side of the aorta. The animals were allowed to recover from surgery for 5 days prior to being returned to the testing colony. Following recovery, animals were subjected to two rounds of evaluation as follows:
The animals were then returned to their housing to washout the drug over 5 to 7 days.
ECGs were acquired continuously for 6 hours. The animals were then returned to their housing to washout the drug over 5 to 7 days.
ECG analysis over 5 minutes pre-dose and 6 hours post dose consisted in was automated based on pattern recognition algorithms. The analyzed data were binned into 5-minute segments. Intervals such as PR, QRS, QT, QTc, JT and RR were analyzed automatically using AD Instruments LabChart Pro v8. The accuracy of the measurements was verified manually using digital cursors by randomly selecting 3 to 5 segments at any given time postdose. […] The frequency of arrhythmia was quantified and expressed as “% of ECG time spent in abnormal sinus rhythm over entire duration of the recording”.

[2] = oral 1.0 mg/kg 14:0 lyso PG, then verapamil 0.5 mg/kg i.v., then Fingolimod infusion
[3] = 1 h, read-out: Protection at 1 h post dose
[4] = 2 h, read-out: Protection at 2 h post dose
[5] = 4 h, read-out: Protection at 4 h post dose
[6] = 6 h, read-out: Protection at 6 h post dose
[7] = test compound 2 mg/kg oral given with moxifloxacin
[8] = i.v. verapamil 0.5 mg/kg 60 minutes before Fingolimod infusion
[9] = intravenous infusion of Fingolimod alone

| SMILES | inhibition in vivo at 2 mg/kg [1, 3] | inhibition in vivo at 2 mg/kg [1, 4] | inhibition in vivo at 2 mg/kg [1, 5] | inhibition in vivo at 2 mg/kg [1, 6] | Maximal prolongation [1, 7] | Onset of protection [1] | Time of maximal protection [1] | Duration of complete protection [1] | further results |
| --- | --- | --- | --- | --- | --- | --- | --- | --- | --- |
| CCCCCCCCCCCCCC(=O)OC[C@@H](O)COP(=O)(O)OCC(O)CO (mixture of isomers) [14:0 lyso PG, 1-myristoyl-2-hydroxy-sn-glycero-3-phospho-(1′-rac-glycerol)] |  |  |  |  |  |  |  |  | Fingolimod dose at P-QRS dissociation, rest of the animals in the cohort (AV block; [2]): 0.3 mg/kg; animals in which a Mobitz-Type-2 AV block appeared (AV block; [2]): 2 out of 6; Fingolimod dose at P-QRS dissociation, the two animals with Mobitz-Type-2 AV block (AV block; oral 1.0 mg/kg 14:0 lyso PG, then verapamil 0.5 mg/kg i.v., then Fingolimod infusion, 2 out of 6 animals): 0.051 mg/kg; Fingolimod dose at which 1st-degree AV block appeared (AV block; oral gavage 1.0 mg/kg 14:0 lyso PG, 60 min later i.v. verapamil 0.5 mg/kg, 60 min later Fingolimod infusion): 0.2 mg/kg; shift in the QTc-dose response of Moxifloxacin (QTc prolongation; concomitant dose of 14:0 lyso PG): statistically significant right-shift; changes in QTc (QTc prolongation; concomitant dose of 14:0 lyso PG with moxifloxacin): no, or very little, changes in QTc |
| CCCCCCCCCCCCCC(=O)OC[C@H](COP(=O)([O-])OCC(COC(C)=O)OC(C)=O)OC(=O)CCCCCCCCCCCCC.[Na+] (stereo partly drawn) [Compound 1, Sodium (R)-2,3-bis(tetradecanoyloxy)propyl (2,3-diacetoxypropyl) Phosphate] | 118% | 122% | 100% | 116% | 0 ms | 1 h | 2 h | 6 h |  |
| CCCCCCCCCCCCCC(=O)OC[C@H](COP(=O)([O-])OCC(COC(=O)OCC)OC(=O)OCC)OC(=O)CCCCCCCCCCCCC.[Na+] (stereo partly drawn) [Compound 2, Sodium 2,3-bis((ethoxycarbonyl)oxy)propyl ((R)-2,3-bis (tetra decanoyloxy)propyl) Phosphate] | 95% | 88% | 22% | 90% | 4 ms | 1 h | 2 h | 4 h |  |
| CCCCCCCCCCCCCCCCCC1OCC(COP(=O)([O-])OC[C@@H](COC(=O)CCCCCCCCCCCCC)OC(=O)CCCCCCCCCCCCC)O1.[Na+] (stereo partly drawn) [Compound 4, Sodium (R)-2,3-bis (tetradecanoyloxy)propyl ((2-heptadecyl-1,3-dioxolan-4-yl)methyl) Phosphate] | 95% | 88% | 22% | 90% | 8 ms | 1 h | 2 h | 4 h |  |
| CCCCCCCCCCCCCCCC1OCC(COP(=O)([O-])OC[C@@H](COC(=O)CCCCCCCCCCCCC)OC(=O)CCCCCCCCCCCCC)O1.[Na+] (stereo partly drawn) [Compound 5, Sodium (R)-2,3-bis(tetradecanoyloxy)propyl ((2-pentadecyl-1,3-dioxolan-4-yl)methyl) Phosphate] | 35% | 113% | 126% | 176% | 0 ms | 2 h | 2 h | 6 h |  |
| CCCCCCCCCCCCCC(=O)OC[C@H](COP(=O)([O-])OCC1COC(CCCCC)O1)OC(=O)CCCCCCCCCCCCC.[Na+] (stereo partly drawn) [Compound 6, Sodium (R)-2,3-bis(tetradecanoyloxy)propyl ((2-pentyl-1,3-dioxolan-4-yl)methyl) Phosphate] | 74% | 110% | 115% | 138% | 3 ms | 1 h | 2 h | 6 h |  |
| CCCCCCCCCCCCCC(=O)OC[C@H](COP(=O)([O-])OCC(COC(=O)CCC)OC(=O)CCC)OC(=O)CCCCCCCCCCCCC.[Na+] (stereo partly drawn) [Compound 7, Sodium 2,3-bis(butyryloxy)propyl ((R)-2,3-bis(tetradecanoyloxy)propyl) Phosphate] | 83% | 100% | 119% | 147% | 4 ms | 1 h | 2 h | 6 h |  |
| CCCCCCCCCCCCCC(=O)OC[C@H](COP(=O)([O-])OCC(COC(=O)CC(C)C)OC(=O)CC(C)C)OC(=O)CCCCCCCCCCCCC.[Na+] (stereo partly drawn) [Compound 8, Sodium 2,3-bis((3-methylbutanoyl)oxy)propyl ((R)-2,3-bis(tetradecanoyloxy)propyl) Phosphate] | 74% | 97% | 100% | 132% | 2 ms | 1 h | 2 h | 6 h |  |
| CCCCCCCCCCCCCC(=O)OC[C@H](COP(=O)([O-])OCC(COC(=O)C(C)C)OC(=O)C(C)C)OC(=O)CCCCCCCCCCCCC.[Na+] (stereo partly drawn) [Compound 9, Sodium 2,3-bis(isobutyryloxy)propyl ((R)-2,3-bis(tetradecanoyloxy)propyl) Phosphate] | 91% | 94% | 100% | 116% | 3 ms | 1 h | 2 h | 6 h |  |
| CCCCCCCCCCCCCC(=O)OC[C@H](COP(=O)([O][MgH])OCC(COC(=O)OCC)OC(=O)OCC)OC(=O)CCCCCCCCCCCCC (stereo partly drawn) [Compound 10, magnesium-2,3-bis((ethoxycarbonyl)oxy)propyl((R)-2,3-bis(tetradecanoyloxy)propyl) Phosphate] |  |  |  |  |  | 1 h | 2 h | 6 h | Protection at 1 h post dose ([1]; percent of Moxifloxacin effect, single oral 2 mg/kg test compound concomitantly with oral moxifloxacin 20 mg/kg, 1 h post dose): 83% |
| CCCCCCCCCCCCCC(=O)OC[C@H](COP(=O)([O][MgH])OCC(COC(=O)OCC)OC(=O)OCC)OC(=O)CCCCCCCCCCCCC (stereo partly drawn) [Compound 11, calcium-2,3-bis((ethoxycarbonyl)oxy)propyl ((R)-2,3-bis(tetradecanoyloxy)propyl) Phosphate] |  |  |  |  |  | 1 h | 2 h | 6 h | inhibition in vivo at 2 mg/kg ([1]; 1 h, read-out: Protection at 1 h post dose, percent of Moxifloxacin effect, single oral 2 mg/kg test compound concomitantly with oral moxifloxacin 20 mg/kg, 1 h post dose): 83%; inhibition in vivo at 2 mg/kg ([1]; 2 h, read-out: Protection at 2 h post dose, percent of Moxifloxacin effect, single oral 2 mg/kg test compound concomitantly with oral moxifloxacin 20 mg/kg, 2 h post dose): 94%; inhibition in vivo at 2 mg/kg ([1]; 4 h, read-out: Protection at 4 h post dose, percent of Moxifloxacin effect, single oral 2 mg/kg test compound concomitantly with oral moxifloxacin 20 mg/kg, 4 h post dose): 91%; inhibition in vivo at 2 mg/kg ([1]; 6 h, read-out: Protection at 6 h post dose, percent of Moxifloxacin effect, single oral 2 mg/kg test compound concomitantly with oral moxifloxacin 20 mg/kg, 6 h post dose): 116%; Maximal prolongation ([1]; test compound 2 mg/kg oral given with moxifloxacin, 2 mg/kg): 8 ms |
| CCCCCCCCc1ccc(CCC(N)(CO)CO)cc1 [Fingolimod] |  |  |  |  |  |  |  |  | Fingolimod dose at 1st-degree AV block (AV block; [8]): 0.007 mg/kg; Fingolimod dose at 3rd-degree dissociation between P waves and QRS complexes (AV block; [8]): 0.045 mg/kg; Fingolimod dose at Mobitz-Type-1 2nd degree AV block (AV block; [8]): 0.01 mg/kg; Fingolimod dose at 1st degree AV block (AV block; [9]): 0.015 mg/kg; Fingolimod dose at 3rd degree AV block (AV block; [9]): 0.023 mg/kg; Fingolimod dose at Mobitz Type-1, 2nd-degree AV block (AV block; [9]): 0.02 mg/kg |
| COc1c(N2C[C@@H]3CCCN[C@@H]3C2)c(F)cc2c(=O)c(C(=O)O)cn(C3CC3)c12 [Moxifloxacin, reference compound] |  |  |  |  |  |  |  |  | Maximal prolongation ([1]; Moxifloxacin alone, column head 40 mg/kg): 29 ms |

Source: patent publication US11643424B2, “Cardiopathy-reducing phosphodiester lipids” (Signpath Pharma, Inc., priority 2018, dated 2023)
